Reference: patent publication US8697705B2, “Isoindolinone derivatives” (Hoffmann-La Roche Inc., priority 2011, dated 2014)

Key:
[1] = target: T1, Recombinant human liver GK1 (GST-GK) (Homo sapiens, UniProt P35557); assay: Glucokinase in vitro assay (G6PDH-coupled, NADH generation, OD340); assay type: biochemical; details: 30° C., 5 mM D-glucose, 10% dimethylsulfoxide
T1 construct: made in house; host or cells: E. coli
T1 sequence (P35557 1-466 isoform P35557-2): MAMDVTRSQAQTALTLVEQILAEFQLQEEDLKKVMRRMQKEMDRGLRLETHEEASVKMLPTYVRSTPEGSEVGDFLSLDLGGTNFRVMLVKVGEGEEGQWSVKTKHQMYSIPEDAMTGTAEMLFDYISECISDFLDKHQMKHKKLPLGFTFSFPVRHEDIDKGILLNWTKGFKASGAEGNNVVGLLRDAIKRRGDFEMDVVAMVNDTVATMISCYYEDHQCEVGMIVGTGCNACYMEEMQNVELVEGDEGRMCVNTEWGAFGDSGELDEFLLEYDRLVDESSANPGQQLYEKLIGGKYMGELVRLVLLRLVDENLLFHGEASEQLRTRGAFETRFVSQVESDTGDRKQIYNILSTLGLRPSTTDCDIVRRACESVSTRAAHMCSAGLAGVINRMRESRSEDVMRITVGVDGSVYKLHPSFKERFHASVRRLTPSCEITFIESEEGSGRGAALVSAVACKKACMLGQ
Procedure: Glucokinase In Vitro Assay Protocol:
Glucokinase (GK) was assayed by coupling the production of glucose-6-phosphate to the generation of NADH with glucose-6-phosphate dehydrogenase (G6PDH, 0.75-1 kunits/mg; Boehringer Mannheim, Indianapolis, Ind.) from Leuconostoc mesenteroides as the coupling enzyme (Scheme 2).
Recombinant human liver GK1 was expressed in E. coli as a glutathione S-transferase fusion protein (GST-GK) and was purified by chromatography over a glutathione-Sepharose 4B affinity column using the procedure provided by the manufacturer (Amersham Pharmacia Biotech, Piscataway, N.J.).
The assay was conducted at 30° C. in a flat bottom 96-well tissue culture plate from Costar (Cambridge, Mass.) with a final incubation volume of 120 μL. The incubation reaction contained the following: 25 mM Hepes buffer (pH 7.1), 25 mM KCl, 5 mM D-glucose, 1 mM ATP, 1.8 mM NAD, 2 mM MgCl2, 1 μM sorbitol-6-phosphate, 1 mM dithiothreitol, test drug or 10% dimethylsulfoxide, ˜7 units/ml G6PDH, and GK (see below). All organic reagents were >98% pure and were from Boehringer Mannheim with the exceptions of D-glucose and Hepes which were from Sigma Chemical Co, St Louis, Mo. Test compounds were dissolved in dimethylsulfoxide and were added to the incubation reaction minus GST-GK in a volume of 12 μL to yield a final dimethylsulfoxide concentration of 10%. This mix was pre-incubated in the temperature controlled chamber of a SPECTRAmax 250 microplate spectrophotometer (Molecular Devices Corporation, Sunnyvale, Calif.) for 10 minutes to allow temperature equilibrium and then the reaction was started by the addition of 20 μL GST-GK.
After addition of enzyme, the increase in optical density (OD) at 340 nm was monitored spectrophotometrically to determine the rate of change (OD340 per min). The GK activity (OD340/min) in control wells (10% dimethylsulfoxide minus GK activators) was compared with the activity in wells containing test GK activators, and the concentration of activator that produced a 50% increase in the activity of GK, i.e., the SC1.5, was calculated.

C57BL/6J mice = assay: Glucokinase activator in vivo screen: blood glucose lowering after oral gavage in mice; details: Mus musculus, C57B6 mice, read-out: % gluc lowering @ 2 H; for change in vivo at 25 mg/kg: vs. control at 2 hours post 25 mg/kg oral dose
Procedure: Glucokinase Activator In Vivo Screen Protocol in Lean Mice:
Lean C57BL/6J mice were orally dosed via gavage with Glucokinase (GK) activator following a two hour fasting period. Blood glucose determinations were made at various (e.g. 0, 1, 2, 4 and 8 hours post-oral gavage) times during the study.
C57Bl/6J mice were obtained from Jackson Laboratory (Bar Harbor, Me.) and were maintained in a light-dark cycle with lights on from 0600-1800 hr. For studies in lean mice, the mice were received at age ten weeks and given ad libitum access to control diet (LabDiet 5001 chow, PMI Nutrition, Brentwood, Mo.), and were at least age 11 weeks at the time of study. For studies in the DIO model, the mice were received at age five weeks and given ad libitum access to Bio-Sery F3282 High Fat Diet (Frenchtown, N.J.), and were at least age 16 weeks at the time of study. The experiments were conducted during the light phase of the light-dark cycle. Mice (n=6) are weighed and fasted for a two hour period prior to oral treatment. GK activators are formulated in Gelucire vehicle (Ethanol:Gelucire44/14:PEG400q.s. 4:66:30 v/w/v). For studies in lean mice, the mice were dosed orally with 5.0 μL per gram of body weight (i.e. 5 ml/kg×10.0 mg/ml formulation to equal a 50 mg/kg dose). For studies in DIO mice, the mice were dosed orally with 5.0 μL per gram of body weight (i.e. 5.0 ml/kg×5 mg/ml formulation to equal a 25 mg/kg dose). Immediately prior to dosing, a pre-dose (time zero) blood glucose reading was acquired by snipping off a small portion of the animal's tail and collecting 15 μL blood into a heparinized capillary tube for analysis. Following GK activator administration, additional blood glucose readings were taken at various time points post dose from the same tail wound. Results were interpreted by comparing the mean blood glucose values of vehicle treated mice with GK activator treated mice over the study period.
Table 2 below provides data for % glucose lowering of a representative number of compounds of the present invention vs. control at 2 hours post 25 or 50 mg/kg dose in C57B6 mice: […]

Cn1ccc(NC(=O)[C@H](CC2CCCC2)N2Cc3c(cccc3C(F)(F)F)C2=O)n1 [Example 1, (S)-3-Cyclopentyl-N-(1-methyl-1H-pyrazol-3-yl)-2-(1-oxo-4-trifluoromethyl-1,3-dihydro-isoindol-2-yl)-propionamide]
SC1.5 (concentration of activator that produced a 50% increase in the activity of GK) [1]: 0.187 µM
change in vivo at 25 mg/kg (C57BL/6J mice): -39.8%

COCCn1ccc(NC(=O)[C@H](CC2CCCC2)N2Cc3c(cccc3C(F)(F)F)C2=O)n1 [Example 13, (S)-3-Cyclopentyl-N-[1-(2-methoxy-ethyl)-1H-pyrazol-3-yl]-2-(1-oxo-4-trifluoromethyl-1,3-dihydro-isoindol-2-yl)-propionamide]
SC1.5 (concentration of activator that produced a 50% increase in the activity of GK) [1]: 0.328 µM
change in vivo at 50 mg/kg (C57BL/6J mice; vs. control at 2 hours post 50 mg/kg oral dose): -45.2%

COCCn1ccc(NC(=O)[C@H](CC2CCCC2)N2Cc3ccccc3C2=O)n1 [Example 9, (S)-3-Cyclopentyl-N-[1-(2-methoxy-ethyl)-1H-pyrazol-3-yl]-2-(1-oxo-1,3-dihydro-isoindol-2-yl)-propionamide]
SC1.5 (concentration of activator that produced a 50% increase in the activity of GK) [1]: 1.6 µM

CC(C)C[C@@H](C(=O)Nc1cnc([C@H](O)CO)cn1)N1Cc2c(cccc2C(F)(F)F)C1=O [Example 24, (S)-4-Methyl-2-(1-oxo-4-trifluoromethyl-1,3-dihydro-isoindol-2-yl)-pentanoic acid [5-((S)-1,2-dihydroxy-ethyl)-pyrazin-2-yl]-amide]
SC1.5 (concentration of activator that produced a 50% increase in the activity of GK) [1]: 2.966 µM

O=C(O)CCn1ccc(NC(=O)[C@H](CC2CCCC2)N2Cc3c(cccc3C(F)(F)F)C2=O)n1 [Example 20, 3-[3-[(S)-3-Cyclopentyl-2-(1-oxo-4-trifluoromethyl-1,3-dihydro-isoindol-2-yl)-propionylamino]-pyrazol-1-yl]-propionic acid]
SC1.5 (concentration of activator that produced a 50% increase in the activity of GK) [1]: 0.457 µM

O=C(O)Cn1ccc(NC(=O)[C@H](CC2CCCC2)N2Cc3c(cccc3C(F)(F)F)C2=O)n1 [Example 4, {3-[(S)-3-Cyclopentyl-2-(1-oxo-4-trifluoromethyl-1,3-dihydro-isoindol-2-yl)-propionylamino]-pyrazol-1-yl}-acetic acid]
SC1.5 (concentration of activator that produced a 50% increase in the activity of GK) [1]: 0.439 µM

O=C(Nc1ccn(CCCO)n1)[C@H](CC1CCCC1)N1Cc2ccccc2C1=O [Example 12, (S)-3-Cyclopentyl-N-[1-(3-hydroxy-propyl)-1H-pyrazol-3-yl]-2-(1-oxo-1,3-dihydro-isoindol-2-yl)-propionamide]
SC1.5 (concentration of activator that produced a 50% increase in the activity of GK) [1]: 1.857 µM

O=C(Nc1ccn(CCO)n1)[C@H](CC1CCCC1)N1Cc2c(cccc2C(F)(F)F)C1=O [Example 2, (S)-3-Cyclopentyl-N-[1-(2-hydroxy-ethyl)-1H-pyrazol-3-yl]-2-(1-oxo-4-trifluoromethyl-1,3-dihydro-isoindol-2-yl)-propionamide]
SC1.5 (concentration of activator that produced a 50% increase in the activity of GK) [1]: 0.186 µM
change in vivo at 25 mg/kg (C57BL/6J mice): -38.8%

O=C(Nc1cnc(Br)cn1)[C@H](CC1CCCC1)N1Cc2c(cccc2C(F)(F)F)C1=O [Example 16, (S)—N-(5-Bromo-pyrazin-2-yl)-3-cyclopentyl-2-(1-oxo-4-trifluoromethyl-1,3-dihydro-isoindol-2-yl)-propionamide]
SC1.5 (concentration of activator that produced a 50% increase in the activity of GK) [1]: 0.062 µM

COCCn1ccc(NC(=O)[C@H](CC2CCCCC2)N2Cc3c(F)cccc3C2=O)n1 [Example 18, (S)-3-Cyclohexyl-2-(4-fluoro-1-oxo-1,3-dihydro-isoindol-2-yl)-N-[1-(2-methoxy-ethyl)-1H-pyrazol-3-yl]-propionamide]
SC1.5 (concentration of activator that produced a 50% increase in the activity of GK) [1]: 0.962 µM
change in vivo at 25 mg/kg (C57BL/6J mice): -25.4%

CSCC[C@@H](C(=O)Nc1cnc([C@H](O)CO)cn1)N1Cc2c(cccc2C(F)(F)F)C1=O [Example 22, (S)—N-[5-((S)-1,2-Dihydroxy-ethyl)-pyrazin-2-yl]-4-methylsulfanyl-2-(1-oxo-4-trifluoromethyl-1,3-dihydro-isoindol-2-yl)-butyramide]
SC1.5 (concentration of activator that produced a 50% increase in the activity of GK) [1]: 14.914 µM

CC(C)(C)OC(=O)Cn1ccc(NC(=O)[C@H](CC2CCCC2)N2Cc3c(cccc3C(F)(F)F)C2=O)n1 [Example 3, {3-[(S)-3-Cyclopentyl-2-(1-oxo-4-trifluoromethyl-1,3-dihydro-isoindol-2-yl)-propionylamino]-pyrazol-1-yl}-acetic acid tert-butyl ester]
SC1.5 (concentration of activator that produced a 50% increase in the activity of GK) [1]: 0.244 µM

CC(C)(C)OC(=O)CCn1ccc(NC(=O)[C@H](CC2CCCC2)N2Cc3c(cccc3C(F)(F)F)C2=O)n1 [Example 19, 3-{3-[(S)-3-Cyclopentyl-2-(1-oxo-4-trifluoromethyl-1,3-dihydro-isoindol-2-yl)-propionylamino]-pyrazol-1-yl}-propionic acid tert-butyl ester]
SC1.5 (concentration of activator that produced a 50% increase in the activity of GK) [1]: 0.334 µM

COC(C)(C)Cn1ccc(NC(=O)[C@H](CC2CC2)N2Cc3ccccc3C2=O)n1 [Example 10, (S)-3-Cyclopropyl-N-[1-(2-methoxy-2-methyl-propyl)-1H-pyrazol-3-yl]-2-(1-oxo-1,3-dihydro-isoindol-2-yl)-propionamide]
SC1.5 (concentration of activator that produced a 50% increase in the activity of GK) [1]: 20.625 µM

COCCn1ccc(NC(=O)[C@H](CC2CCCCC2)N2Cc3ccccc3C2=O)n1 [Example 8, (S)-3-Cyclohexyl-N-[1-(2-methoxy-ethyl)-1H-pyrazol-3-yl]-2-(1-oxo-1,3-dihydro-isoindol-2-yl)-propionamide]
SC1.5 (concentration of activator that produced a 50% increase in the activity of GK) [1]: 3.526 µM

CC(C)OCCn1ccc(NC(=O)[C@H](CC2CCCC2)N2Cc3ccccc3C2=O)n1 [Example 11, (S)-3-Cyclopentyl-N-[1-(2-isopropoxy-ethyl)-1H-pyrazol-3-yl]-2-(1-oxo-1,3-dihydro-isoindol-2-yl)-propionamide]
SC1.5 (concentration of activator that produced a 50% increase in the activity of GK) [1]: 2.091 µM

COC(C)(C)Cn1ccc(NC(=O)[C@H](CC2CCCC2)N2Cc3ccccc3C2=O)n1 [Example 14, (S)-3-Cyclopentyl-N-[1-(2-methoxy-2-methyl-propyl)-1H-pyrazol-3-yl]-2-(1-oxo-1,3-dihydro-isoindol-2-yl)-propionamide]
SC1.5 (concentration of activator that produced a 50% increase in the activity of GK) [1]: 1.242 µM

CC(C)C[C@@H](C(=O)Nc1cnccn1)N1Cc2c(cccc2C(F)(F)F)C1=O [Example 23, (S)-4-Methyl-2-(1-oxo-4-trifluoromethyl-1,3-dihydro-isoindol-2-yl)-pentanoic acid pyrazin-2-ylamide]
SC1.5 (concentration of activator that produced a 50% increase in the activity of GK) [1]: 1.422 µM
